Measured values from PMC10607160 (International Journal of Molecular Sciences, 2023).
Like-named read-outs stand apart in the source and are kept apart here.

Experiments:
[1] = molecular target: T1, human GnRHR I (Homo sapiens, UniProt P30968); assay: Competitive radioligand binding (125I-DTyr6-His5-GnRH) on membranes from HEK 293 cells stably expressing GnRHR I
T1 construct: expressed in transfected cells
T1 sequence (P30968 1-328): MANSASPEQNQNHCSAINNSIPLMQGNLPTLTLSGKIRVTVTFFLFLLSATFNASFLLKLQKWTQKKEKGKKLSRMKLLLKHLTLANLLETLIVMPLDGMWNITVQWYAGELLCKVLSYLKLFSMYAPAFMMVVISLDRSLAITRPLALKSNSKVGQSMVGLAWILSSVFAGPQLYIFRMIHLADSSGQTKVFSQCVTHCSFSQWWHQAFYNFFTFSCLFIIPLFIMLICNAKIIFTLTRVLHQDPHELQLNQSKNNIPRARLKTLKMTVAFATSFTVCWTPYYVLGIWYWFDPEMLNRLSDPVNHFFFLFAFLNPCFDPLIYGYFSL

[2] = molecular target: E. coli Trx1 / E. coli TrxR (thioredoxin system) (Escherichia coli, UniProt P0AA25); assay: Disulfide bond reduction assay by EcoTrx1 (NADPH absorbance at 340 nm); assay type: biochemical; settings: for Absorbance Asample1 / Absorbance Asample2 / Absorbance Average1, 2: A340, with TrxR
E. coli Trx1 / E. coli TrxR (thioredoxin system), sequence (P0AA25 2-109): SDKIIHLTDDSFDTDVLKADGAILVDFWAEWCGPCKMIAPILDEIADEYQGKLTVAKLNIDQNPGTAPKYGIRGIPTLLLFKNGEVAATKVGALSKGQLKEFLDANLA
Procedure: The assay employed was based on changes in the absorbance at 340 nm from the oxidation of NADPH using a modified version of the protocol laid out in [90]. Briefly, the decrease in A340 was measured in 96-well plates containing 100 μL of 200 mM potassium phosphate pH 7.4, 1 mM EDTA, 0.1 mg/mL BSA, 200 μM NADPH, 2 μM E. coli Trx1 and 10 nM E. coli TrxR for 5 min at 25 °C with insulin at a final concentration of 0.067 mM (0.2 mM disulfides) (see Table S2). The reduction of con7 was measured at a final concentration of 0.2 mM (see Table S3). Blanks were samples without EcoTrxR.
Figure 4 Reduction of (A) con7 and (B) insulin by EcoTrx1. The assay mixture contains 200 mM potassium phosphate pH 7.4, 1 mM EDTA, 0.1 mg/mL BSA, 200 μM NADPH, 2 μM Escherichia coli Trx1, 10 nM E. coli TrxR, (A) 0.2 mM con7 or (B) 0.067 mM (0.2 mM disulfides) insulin. The reaction was carried out at 25 °C by monitoring the decrease of NADPH absorbance at 340 nm for (A) con7 in the absence ( [drawing 1] ) or presence of TrxR ( [drawing 2] ) and (B) insulin in the absence ( [drawing 3] ) or presence of TrxR ( [drawing 4] ).

[3] = competition with 125I-DTyr6-His5-GnRH, HEK 293 membranes, 4 °C 16-19 h, one-site model, read-out: apparent binding affinity (IC50)

O=C1c2c(O)ccc(O)c2C(=O)c2c(NCCNCCO)ccc(NCCNCCO)c21 [mitoxantrone, reference compound]
did not bind: apparent binding affinity (IC50) ([1]; competition with 125I-DTyr6-His5-GnRH, HEK 293 membranes, 4 °C 16-19 h, one-site model)
> 1000 nM: IC50 [1, 3]

CCNC(=O)[C@@H]1CCCN1C(=O)[C@H](CCCNC(=N)N)NC(=O)[C@H](CC(C)C)NC(=O)[C@@H](CCCCNC(=O)CCCCCNC(=O)CCSSCC(=O)NCCCCNc1ccc(O)c2c1C(=O)c1ccccc1C2=O)NC(=O)[C@H](Cc1ccc(O)cc1)NC(=O)[C@H](CO)NC(=O)[C@H](Cc1c[nH]c2ccccc12)NC(=O)[C@H](Cc1c[nH]cn1)NC(=O)[C@@H]1CCC(=O)N1 [con6]
0.07 nM: IC50 [1, 3]

CCNC(=O)[C@@H]1CCCN1C(=O)[C@H](CCCNC(=N)N)NC(=O)[C@H](CC(C)C)NC(=O)[C@@H](CS)NC(=O)[C@H](Cc1ccc(O)cc1)NC(=O)[C@H](CO)NC(=O)[C@H](Cc1c[nH]c2ccccc12)NC(=O)[C@H](Cc1c[nH]cn1)NC(=O)[C@@H]1CCC(=O)N1 [analogue 2, [DCys^6, Pro^9-NHEt]GnRH]
0.7 nM: IC50 [1, 3]

insulin
0.241: Absorbance Average1, 2 ([2]; 243 sec) | Absorbance Average1, 2 ([2]; 252 sec) | Absorbance Average1, 2 ([2]; 279 sec)
0.250: Absorbance Asample2 ([2]; 261 sec) | Absorbance Asample2 ([2]; 270 sec) | Absorbance Asample2 ([2]; 288 sec) | Absorbance Asample2 ([2]; 297 sec)
0.247: Absorbance Average1, 2 ([2]; 0 sec) | Absorbance Average1, 2 ([2]; 9 sec) | Absorbance Average1, 2 ([2]; 18 sec)
0.255: Absorbance Asample2 ([2]; 54 sec) | Absorbance Asample2 ([2]; 72 sec) | Absorbance Asample2 ([2]; 90 sec) | Absorbance Asample2 ([2]; 108 sec)
0.246: Absorbance Average1, 2 ([2]; 27 sec) | Absorbance Average1, 2 ([2]; 36 sec) | Absorbance Average1, 2 ([2]; 45 sec) | Absorbance Average1, 2 ([2]; 63 sec)
0.244: Absorbance Average1, 2 ([2]; 81 sec) | Absorbance Average1, 2 ([2]; 99 sec) | Absorbance Average1, 2 ([2]; 117 sec) | Absorbance Average1, 2 ([2]; 126 sec) | Absorbance Average1, 2 ([2]; 135 sec) | Absorbance Average1, 2 ([2]; 144 sec)
0.233: Absorbance Asample1 ([2]; 81 sec) | Absorbance Asample1 ([2]; 162 sec) | Absorbance Asample1 ([2]; 171 sec) | Absorbance Asample1 ([2]; 180 sec) | Absorbance Asample1 ([2]; 198 sec) | Absorbance Asample1 ([2]; 216 sec)
0.253: Absorbance Asample2 ([2]; 117 sec) | Absorbance Asample2 ([2]; 126 sec) | Absorbance Asample2 ([2]; 135 sec) | Absorbance Asample2 ([2]; 144 sec) | Absorbance Asample2 ([2]; 162 sec)
0.232: Absorbance Asample1 ([2]; 153 sec) | Absorbance Asample1 ([2]; 189 sec) | Absorbance Asample1 ([2]; 207 sec) | Absorbance Asample1 ([2]; 225 sec) | Absorbance Asample1 ([2]; 234 sec)
0.256: Absorbance Asample2 ([2]; 36 sec) | Absorbance Asample2 ([2]; 45 sec) | Absorbance Asample2 ([2]; 63 sec)
0.243: Absorbance Average1, 2 ([2]; 162 sec) | Absorbance Average1, 2 ([2]; 171 sec) | Absorbance Average1, 2 ([2]; 180 sec) | Absorbance Average1, 2 ([2]; 198 sec) | Absorbance Average1, 2 ([2]; 216 sec)
0.236: Absorbance Asample1 ([2]; 0 sec) | Absorbance Asample1 ([2]; 9 sec) | Absorbance Asample1 ([2]; 18 sec) | Absorbance Asample1 ([2]; 36 sec)
0.245: Absorbance Average1, 2 ([2]; 54 sec) | Absorbance Average1, 2 ([2]; 72 sec) | Absorbance Average1, 2 ([2]; 90 sec) | Absorbance Average1, 2 ([2]; 108 sec)
0.229: Absorbance Asample1 ([2]; 297 sec)
0.240: Absorbance Average1, 2 ([2]; 261 sec) | Absorbance Average1, 2 ([2]; 270 sec) | Absorbance Average1, 2 ([2]; 288 sec) | Absorbance Average1, 2 ([2]; 297 sec)
0.234: Absorbance Asample1 ([2]; 99 sec) | Absorbance Asample1 ([2]; 108 sec) | Absorbance Asample1 ([2]; 126 sec) | Absorbance Asample1 ([2]; 144 sec)
successful: reduction of disulfide bond by the thioredoxin system ([2]; decrease of NADPH absorbance over time in samples containing TrxR)
0.251: Absorbance Asample2 ([2]; 243 sec) | Absorbance Asample2 ([2]; 252 sec) | Absorbance Asample2 ([2]; 279 sec)
0.231: Absorbance Asample1 ([2]; 243 sec) | Absorbance Asample1 ([2]; 252 sec) | Absorbance Asample1 ([2]; 279 sec)
0.235: Absorbance Asample1 ([2]; 27 sec) | Absorbance Asample1 ([2]; 45 sec) | Absorbance Asample1 ([2]; 54 sec) | Absorbance Asample1 ([2]; 63 sec) | Absorbance Asample1 ([2]; 72 sec) | Absorbance Asample1 ([2]; 90 sec) | Absorbance Asample1 ([2]; 117 sec) | Absorbance Asample1 ([2]; 135 sec)
0.252: Absorbance Asample2 ([2]; 153 sec) | Absorbance Asample2 ([2]; 171 sec) | Absorbance Asample2 ([2]; 180 sec) | Absorbance Asample2 ([2]; 189 sec) | Absorbance Asample2 ([2]; 198 sec) | Absorbance Asample2 ([2]; 207 sec) | Absorbance Asample2 ([2]; 216 sec) | Absorbance Asample2 ([2]; 225 sec) | Absorbance Asample2 ([2]; 234 sec)
0.254: Absorbance Asample2 ([2]; 81 sec) | Absorbance Asample2 ([2]; 99 sec)
0.230: Absorbance Asample1 ([2]; 261 sec) | Absorbance Asample1 ([2]; 270 sec) | Absorbance Asample1 ([2]; 288 sec)
0.242: Absorbance Average1, 2 ([2]; 153 sec) | Absorbance Average1, 2 ([2]; 189 sec) | Absorbance Average1, 2 ([2]; 207 sec) | Absorbance Average1, 2 ([2]; 225 sec) | Absorbance Average1, 2 ([2]; 234 sec)
0.257: Absorbance Asample2 ([2]; 0 sec) | Absorbance Asample2 ([2]; 9 sec) | Absorbance Asample2 ([2]; 18 sec) | Absorbance Asample2 ([2]; 27 sec)

CCNC(=O)[C@@H]1CCCN1C(=O)[C@H](CCCNC(=N)N)NC(=O)[C@H](CC(C)C)NC(=O)[C@@H](CCCCN)NC(=O)[C@H](Cc1ccc(O)cc1)NC(=O)[C@H](CO)NC(=O)[C@H](Cc1c[nH]c2ccccc12)NC(=O)[C@H](Cc1c[nH]cn1)NC(=O)[C@@H]1CCC(=O)N1 [analogue 4, (DLys^6, Pro^9-NHEt)GnRH]
2.5 nM: IC50 [1, 3]

CCNC(=O)[C@@H]1CCCN1C(=O)[C@H](CCCNC(=N)N)NC(=O)[C@H](CC(C)C)NC(=O)[C@@H](CSSCCC(=O)OCCNCCNc1ccc(NCCNCCO)c2c1C(=O)c1c(O)ccc(O)c1C2=O)NC(=O)[C@H](Cc1ccc(O)cc1)NC(=O)[C@H](CO)NC(=O)[C@H](Cc1c[nH]c2ccccc12)NC(=O)[C@H](Cc1c[nH]cn1)NC(=O)[C@@H]1CCC(=O)N1 [con3]
0.07 nM: IC50 [1]
